Reference: PubChem BioAssay AID330 (DTP/NCI, 2004)
“And” between values parts separate entries of the source, which are not always exact repeats. Equal entries are not always repeated. Toxic doses and inconclusive results are not listed. The calls were made as follows: active = survival T/C of 150% or more; inactive = T/C below 125% in these data.

System: P388 leukemia ip, CD2F1 mice, survival T/C
Experiment: NCI In Vivo Anticancer Drug Screen. Data for tumor model P388 Leukemia (intraperitoneal) in CD2F1 (CDF1) mice
Conditions: endpoint: median survival time, higher = longer survival
Outline: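 Mice carrying the transplanted tumor received test compound or vehicle. Survival was recorded in each group, and the value is the treated-group measurement divided by that of the vehicle-treated control group.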

[1] = dose: 50.0 mg/kg/injection, schedule: Q01DX009 (ip), vehicle: saline
[2] = dose: 50.0 mg/kg/injection, schedule: Q01DX009 (ip), vehicle: saline with Tween-80
[3] = dose: 100.0 mg/kg/injection, schedule: Q01DX009 (ip), vehicle: saline with Tween-80
[4] = dose: 200.0 mg/kg/injection, schedule: Q01DX009 (ip), vehicle: saline with Tween-80
[5] = dose: 100.0 mg/kg/injection, schedule: Q01DX009 (ip), vehicle: saline
[6] = dose: 60.0 mg/kg/injection, schedule: Q01DX005 (ip), vehicle: saline with Tween-80
[7] = dose: 120.0 mg/kg/injection, schedule: Q01DX005 (ip), vehicle: saline with Tween-80
[8] = dose: 240.0 mg/kg/injection, schedule: Q01DX005 (ip), vehicle: saline with Tween-80
[9] = dose: 100.0 mg/kg/injection, schedule: Q04DX003 (ip), vehicle: saline with Tween-80
[10] = dose: 200.0 mg/kg/injection, schedule: Q04DX003 (ip), vehicle: saline with Tween-80
[11] = dose: 25.0 mg/kg/injection, schedule: Q01DX005 (ip), vehicle: Klucel (hydroxypropylcellulose) (HPC)
[12] = dose: 50.0 mg/kg/injection, schedule: Q01DX005 (ip), vehicle: Klucel (hydroxypropylcellulose) (HPC)
[13] = dose: 100.0 mg/kg/injection, schedule: Q01DX005 (ip), vehicle: Klucel (hydroxypropylcellulose) (HPC)

Measured: T/C

O=c1c(F)cn(-c2ccco2)c(=O)n1-c1ccco1
inactive: dose: 37.5 mg/kg/injection, schedule: Q04DX003 (ip), vehicle: saline + alcohol 103 % of control | dose: 75.0 mg/kg/injection, schedule: Q04DX003 (ip), vehicle: saline + alcohol 100 % of control | dose: 150.0 mg/kg/injection, schedule: Q04DX003 (ip), vehicle: saline + alcohol 96 % of control

CC1=CC(=O)NC1O (stereo not given)
inactive: dose: 2.5 mg/kg/injection, schedule: Q01DX010 (ip), vehicle: saline 104 % of control | dose: 5.0 mg/kg/injection, schedule: Q01DX010 (ip), vehicle: saline 95 % of control | dose: 10.0 mg/kg/injection, schedule: Q01DX010 (ip), vehicle: saline 90 % of control | dose: 15.0 mg/kg/injection, schedule: Q01DX010 (ip), vehicle: saline 95 % of control | dose: 23.0 mg/kg/injection, schedule: Q01DX009 (ip), vehicle: saline 95 % of control | dose: 35.0 mg/kg/injection, schedule: Q01DX009 (ip), vehicle: saline 86 % of control | [1] 104 % of control

NC(=O)CC1(c2ccccc2)CCCCC1
inactive: [2] 111 % of control | [3] 102 % of control | [4] 104 % of control

COc1cc(C)nc2ccc(Cc3ccc4nc(C)cc(OC)c4c3)cc12
inactive: dose: 25.0 mg/kg/injection, schedule: Q04DX003 (ip), vehicle: saline with Tween-80 94 % of control | dose: 50.0 mg/kg/injection, schedule: Q04DX003 (ip), vehicle: saline with Tween-80 91 % of control

C=CCC(NC(=O)CCl)C(=O)O (stereo not given)
inactive: [1] 92 % of control | [5] 90 % of control

Cc1cc(N)cc(N)c1O
inactive: dose: 1.56 mg/kg/injection, schedule: Q01DX009 (ip), vehicle: saline 97 % of control | dose: 3.12 mg/kg/injection, schedule: Q01DX009 (ip), vehicle: saline 95 % of control | dose: 6.25 mg/kg/injection, schedule: Q01DX009 (ip), vehicle: saline 97 % of control

COc1ccc(CCNC(=O)C2CC3CCCCN3C2C)cc1OC (stereo not given)
inactive: [6] 99 % of control | [7] 95 % of control | [8] 94 % of control

CCOC(=O)Nc1cc2c(c(N)n1)N=C(c1ccccc1)CO2
inactive: dose: 25.0 mg/kg/injection, schedule: Q01DX005 (ip), vehicle: saline with Tween-80 102 % of control and 112 % of control

CCOC(=O)/C=C(/Nc1cccc(OC)c1)c1ccccc1
inactive: dose: 25.0 mg/kg/injection, schedule: Q01DX009 (ip), vehicle: other 97 % of control | dose: 50.0 mg/kg/injection, schedule: Q01DX009 (ip), vehicle: other 103 % of control | dose: 100.0 mg/kg/injection, schedule: Q01DX009 (ip), vehicle: other 98 % of control | dose: 200.0 mg/kg/injection, schedule: Q01DX009 (ip), vehicle: other 91 % of control | dose: 400.0 mg/kg/injection, schedule: Q01DX009 (ip), vehicle: other 105 % of control

O=C1C=C(C2=CC(=O)c3cccc(O)c3C2=O)C(=O)c2c(O)cccc21
inactive: dose: 6.25 mg/kg/injection, schedule: Q01DX009 (ip), vehicle: Klucel (hydroxypropylcellulose) (HPC) 115 % of control | dose: 12.5 mg/kg/injection, schedule: Q01DX009 (ip), vehicle: Klucel (hydroxypropylcellulose) (HPC) 115 % of control

COc1ccc2cc(C(=O)c3cc4ccc(OC)cc4oc3=O)c(=O)oc2c1
inactive: [6] 104 % of control | [7] 101 % of control | [8] 96 % of control

O=[N+]([O-])c1ccc(/C=C\c2ccc(Cl)cc2S(=O)(=O)F)c(Cl)c1
inactive: [3] 95 % of control | dose: 100.0 mg/kg/injection, schedule: Q04DX003 (ip), vehicle: Klucel (hydroxypropylcellulose) (HPC) 117 % of control | [4] 100 % of control | dose: 200.0 mg/kg/injection, schedule: Q04DX003 (ip), vehicle: Klucel (hydroxypropylcellulose) (HPC) 103 % of control | dose: 400.0 mg/kg/injection, schedule: Q01DX009 (ip), vehicle: saline with Tween-80 104 % of control | dose: 400.0 mg/kg/injection, schedule: Q04DX003 (ip), vehicle: Klucel (hydroxypropylcellulose) (HPC) 112 % of control

C[C@]12C=CC(=O)C=C1CC[C@H]1[C@@H]3CCC(=O)O[C@@]3(C)CC(=O)[C@@]12F
inactive: [9] 91 % of control | [10] 95 % of control | dose: 400.0 mg/kg/injection, schedule: Q04DX003 (ip), vehicle: saline with Tween-80 100 % of control

C/C(=N\NC(=S)N1CCCCCC1)c1nccnc1C
inactive: [11] 112 % of control | [12] 122 % of control

O=C(c1ccccc1)C(CN1CCOCC1)CN1CCOCC1
inactive: [1] 119 % of control | [5] 116 % of control

C/C=C/CC1(C)N=C1c1ccccc1 (stereo not given)
inactive: dose: 100.0 mg/kg/injection, schedule: Q01DX001 (ip), vehicle: Klucel (hydroxypropylcellulose) (HPC) 99 % of control | dose: 200.0 mg/kg/injection, schedule: Q01DX001 (ip), vehicle: Klucel (hydroxypropylcellulose) (HPC) 99 % of control | dose: 400.0 mg/kg/injection, schedule: Q01DX001 (ip), vehicle: Klucel (hydroxypropylcellulose) (HPC) 102 % of control

CC(C)CCC1(CCBr)C(=O)NC(=Nc2ccccc2)NC1=O (stereo not given)
inactive: dose: 25.0 mg/kg/injection, schedule: Q01DX009 (ip), vehicle: saline with Tween-80 96 % of control | [2] 98 % of control | [3] 100 % of control | [4] 100 % of control

Cc1nn(C(=S)S)c(C)c1N=Nc1ccc([N+](=O)[O-])cc1
inactive: [11] 94 % of control | [12] 104 % of control | [13] 108 % of control

c1ccc2[nH]ncc2c1
inactive: [2] 96 % of control | [3] 102 % of control | [4] 100 % of control

NC(=O)c1[nH]cnc1N
inactive: dose: 25.0 mg/kg/injection, schedule: Q01DX009 (ip), vehicle: saline 99 % of control | [1] 105 % of control | [5] 99 % of control | dose: 400.0 mg/kg/injection, schedule: Q01DX009 (ip), vehicle: saline 87 % of control

COC(=O)C1CO[C@@H](C(C)(C)C)N1C=O (stereo not given in full)
inactive: dose: 60.0 mg/kg/injection, schedule: Q01DX005 (ip), vehicle: saline 104 % of control | dose: 120.0 mg/kg/injection, schedule: Q01DX005 (ip), vehicle: saline 110 % of control | dose: 240.0 mg/kg/injection, schedule: Q01DX005 (ip), vehicle: saline 101 % of control

CC(Nc1ncnc2c1CCc1ccccc1-2)C(=O)O (stereo not given)
inactive: dose: 100.0 mg/kg/injection, schedule: Q04DX002 (ip), vehicle: saline with Tween-80 100 % of control | dose: 200.0 mg/kg/injection, schedule: Q04DX002 (ip), vehicle: saline with Tween-80 94 % of control

OC(CC1(O)C(F)(F)C(F)(F)C1(F)F)c1ccccc1 (stereo not given)
inactive: [9] 100 % of control | [10] 90 % of control

COC(=O)C1(C)CCCC2(C)c3cc(OC)ccc3C3(CC12)OCCO3 (stereo not given)
inactive: dose: 5.0 mg/kg/injection, schedule: Q01DX009 (ip), vehicle: saline 98 % of control | dose: 10.0 mg/kg/injection, schedule: Q01DX009 (ip), vehicle: saline 95 % of control | dose: 20.0 mg/kg/injection, schedule: Q01DX009 (ip), vehicle: saline 89 % of control

COC(=O)C1C(=O)C2OC1C1OC(C)(C)OC21 (stereo not given)
inactive: [12] 94 % of control | [13] 103 % of control | dose: 200.0 mg/kg/injection, schedule: Q01DX005 (ip), vehicle: Klucel (hydroxypropylcellulose) (HPC) 104 % of control

CN1CCCC1CN1CCCC1 (stereo not given)
inactive: dose: 50.0 mg/kg/injection, schedule: Q01DX005 (ip), vehicle: saline 107 % of control | dose: 100.0 mg/kg/injection, schedule: Q01DX005 (ip), vehicle: saline 102 % of control | dose: 200.0 mg/kg/injection, schedule: Q01DX005 (ip), vehicle: saline 98 % of control
